Assay results: patent US20070054868A1, “Synergistic polyphenol compounds, compositions thereof, and uses thereof” (The Trustees of Columbia University in the City of New York, priority 2005, published 2007)

Legend:
SW837 = assay: Growth inhibition IC50 against colorectal cell lines; assay type: cell-based, human
Source text: Cell lines and cell culture. The Caco2, HCT116, HT29, SW480, and SW837 human colorectal cancer cell lines and the FHC normal human fetal colon cell line were obtained from American Type Culture Collection (Manassas, Va.). All cell lines were maintained in DF10 medium containing DMEM (Invitrogen, San Diego, Calif.) supplemented with 10% fetal bovine serum (Invitrogen). The FHC cell line was originally established from the colon of a human fetus at 13 weeks of gestation and has an epithelial morphology. Cells were cultured in an incubator with humidified air at 37° C. with 5% CO2. As an untreated solvent control, cells were treated with DMSO (Sigma Chemical Co., St. Louis, Mo.) at a final concentration of <0.1%. […] Cells to be tested against were plated onto 96-well plates (3×10^3 cells/well) and twenty-four hours later, the cells were treated with an illustrative Synergistic Polyphenol Composition, or one or more illustrative Synergistic Polyphenol Compounds. Neither the medium nor the test compounds were changed during this time period. The assay was done in triplicate. […] The medium and test compounds were not changed during this time period. As a control, the cells were treated with 0.1% DMSO. […] The numbers of cells in replica plates were then determined using a Coulter Counter (Beckman Coulter Co., Fullerton, Calif.) as described in Shimizu et al., Clin. Cancer Res. 2004: 10:1130-40.

[1] = test system: SW837 human colon cancer cells; assay: Cell proliferation assay (Coulter Counter); assay type: cell-based; settings: 1.0 μg/mL, 96 hours
Description: Thirty thousand SW837 human colon cancer cells were seeded into multiple 35-mm diameter dishes in DFI0 medium, and 24 hours later the cells were treated with EGCG (0, 1.0, or 20 μg/mL) for 96 hours, during which time, the medium and drugs were not changed. As a control, the cells were treated with 0.1% DMSO. Every 24 hours, and for a total time of 96 hours, replicate plates of cells were washed with PBS and the attached cells were collected by trypsinization. The numbers of cells in replica plates were then counted using a Coulter Counter (Beckman Coulter Co., Fullerton, Calif.) as described in Shimizu et al., Clin. Cancer Res., 10:1130-1140 (2004).

IGF-1 protein = assay: Western blot analysis for IGF in SW837 cells; assay type: cell-based, human
Source text: (§1) Total cellular protein was extracted and equivalent amounts of protein were examined by western blot analysis, as described above in Example 6. Cell lysates were separated by SDS-PAGE using 7.5 to 15% polyacrylamide gels and transferred onto Immobilon-P transfer membranes (Millipore Co., Bedford, Mass.). The primary antibodies for IGF-1R[…](#3022) and p-IGF-1R (#3021) were purchased from Cell Signaling Technology (Beverly, Mass.). The primary antibodies for IGF-1R[…](sc-713) and IGFBP-3 (sc-6003) were purchased from Santa Cruz Biotechnology (Santa Cruz, Calif.). The primary antibodies for IGF-1 (clone Sm1.2) and actin (A2066) were purchased from Upstate Cell Signaling Solutions (Charlottesville, Va.) and Sigma Chemical Co. (St Louis, Mo.), respectively. An antibody to actin was used as a loading control. Anti-mouse IgG (Amersham Pharmacia Biosciences, Piscataway, N.J.), anti-rabbit IgG (Amersham Pharmacia Biosciences), or anti-goat IgG (Santa Cruz Biotechnology) antibodies were used as the secondary antibodies. Each membrane was developed using an ECL-enhanced chemiluminescence system (Amersham Biosciences).

IGFBP-3 protein = assay: Western blot analysis for IGF in SW837 cells; assay type: cell-based, human
Source text: as §1

p-IGF-1R = assay: Western blot analysis for IGF in SW837 cells; assay type: cell-based, human; settings: 20 μg/mL, within 6 hours
Source text: as §1

IGF-1 mRNA = assay: Semiquantitative RT-PCR analysis in SW837 cells; assay type: cell-based, human; settings: 20 μg/mL, at 12 hours, additional decline at 24 and 48 hours
Description: (§2) RNA extraction and semiquantitative RT-PCR analysis were performed as described above in Example 7. Total RNA was isolated from SW837 human colon cancer cells using the Trizol reagent (Invitrogen) according to the manufacturer's instructions. cDNA was amplified from 1 μg of total RNA using Superscript one-step RT-PCR with the platinum Taq system (Invitrogen). Actin specific primer sets are described in Suzui, et al., Cancer Res., 62:3997-4006 (2002). […] Each amplification cycle consisted of 0.5 minutes at 94° C. for denaturation, 0.5 minutes at 55° C. for primer annealing, and 1 minute at 72° C. for extension. After PCR amplification, the fragments were analyzed by agarose gel electrophoresis and stained with ethidium bromide. The intensities of bands were quantified with NIH Image software version 1.62.

IGFBP-3 mRNA = assay: Semiquantitative RT-PCR analysis in SW837 cells; assay type: cell-based, human; settings: 20 μg/mL, at 3 to 12 hours, maximum at 6 hours
Description: as §2

MMP-7 mRNA = assay: Semiquantitative RT-PCR analysis in SW837 cells; assay type: cell-based, human; settings: 20 μg/mL, at 12 hours, additional decrease at 24 to 48 hours
Description: as §2

MMP-9 mRNA = assay: Semiquantitative RT-PCR analysis in SW837 cells; assay type: cell-based, human; settings: 20 μg/mL, at 12 hours, additional decrease at 24 to 48 hours
Description: as §2

TGF-β2 mRNA = assay: Semiquantitative RT-PCR analysis in SW837 cells; assay type: cell-based, human; settings: 20 μg/mL, at 3 hours
Description: as §2

[2] = test system: HepG2 human liver cancer cells; assay: MTT cell proliferation assay; assay type: cell-based
Description: Using the MTT cell proliferation assay described in Example 21, and substituting HepG2 human liver cancer cells in place of SW837 cells, the effects of EGCG (20 μg/mL), an illustrative Synergistic Polyphenol Compound, on the production of IGF-1, IGF-2 and IGFBP-3 was determined. […] Accordingly, the Synergistic Polyphenol Compounds are useful for treating or preventing liver cancer.

[3] = test system: EGFR, ERK1, ERK2, and AKT; assay: Phosphorylation of signaling proteins in HT29 cells; assay type: cell-based, human
Description: These effects were detected with as little as […] of EGCG, and within 5 minutes. Phosphorylation of EGFR, ERK1, ERK2, and AKT were suppressed in cells treated with methyl-β-cyclodextrin, which depletes plasma membrane cholesterol. […] In addition, the inhibitory effect of EGCG on phosphorylation of EGFR was not blocked by the addition of cholesterol on the growth medium. These findings provide evidence that EGCG can alter membrane domain organization in colon cancer cells ant that this is not due to cholesterol depletion. It was noted that pre-treatment of the cells with EGCG or Poly E inhibited the binding of Alexa 488-labeled EGF to the cell surface receptor EGFR.

## (−)-epigallocatechin gallate
SW837
  IC50: 19.6 µg/mL
  IC50 concentration determined by MTT assays: 20 µg/mL
[1]
  inhibition of growth: about 55%
IGF-1 protein; 1.0 μg/mL, 96 hours
  levels of the IGF-1 protein: decrease
IGF-1 protein; 20 μg/mL, at 12 hours
  levels of the IGF-1 protein: moderate decrease
IGF-1 protein; 20 μg/mL, at 24 hours
  levels of the IGF-1 protein: marked decrease
IGFBP-3 protein; 1.0 μg/mL, 96 hours
  level of the IGFBP-3 protein: increase
IGFBP-3 protein; 20 μg/mL, at 6 hours, persisted for at least 48 hours
  level of the IGFBP-3 protein: marked increase
p-IGF-1R
  levels of the p-IGF-1R protein: marked decrease
IGF-1 mRNA
  level of IGF-1 mRNA: decrease
IGFBP-3 mRNA
  levels of IGFBP-3 mRNA: increase
MMP-7 mRNA
  cellular level of MMP-7 mRNA: marked decrease
MMP-9 mRNA
  cellular level of MMP-9 mRNA: marked decrease
TGF-β2 mRNA
  level of TGF-β2 mRNA: transiently increased
[2]
  IC50, growth of HepG2 cells: 21 µg/mL
[3]
  inhibitory effect on phosphorylation of EGFR on addition of cholesterol to the growth medium: not blocked
